We go through 1 compound from patent US20200253877A1, “GEMCABENE, PHARMACEUTICALLY ACCEPTABLE SALTS THEREOF, COMPOSITIONS THEREOF AND METHODS OF USE THEREFOR” (NEUROBO PHARMACEUTICALS, INC., priority 2018, published 2020).

In this test the test system is patients with familial hypercholesterolemia (FH). Briefly: Open-label escalating-dose study (300, 600, 900 mg) in familial hypercholesterolemia patients on stable lipid-lowering therapy: LDL-C. The test is classed as in vivo, human. The settings on record: Patient 1. The procedure: A study was performed to evaluate the efficacy of film-coated Tablet D in treating patients with familial hypercholesterolemia (FH) and who are on stable, lipid-lowering therapy. Male and female patients ≥17 years of age who had been diagnosed with FH by genetic confirmation or a clinical diagnosis based on either (1) a history of an untreated LDL-C concentration ≥500 mg/dl (12.92 mmol/L) together with either appearance of xanthoma before 10 years of age, or evidence of familial hypercholesterolemia in both parents or (2) LDL-C >300 mg/dl (7.76 mmol/L) on maximally tolerated lipid-lowering drug therapy were enrolled in the study.
The study was a 3-period, 3-treatment study using successively escalating doses of 300 mg, 600 mg, and 900 mg gemcabene calcium salt hydrate Crystal Form 1 (PSD90=52 μm). All patients were on each of the successive doses for 4 weeks at a time. Patients remained on their stable, lipid-lowering therapy throughout the study.
Each patient received one 300 mg gemcabene calcium salt hydrate Crystal Form 1 tablet (film-coated Tablet D) orally QD (alternatively written as q.d.; meaning “once a day”) for 4 weeks. The same patients then received 600 mg gemcabene calcium salt hydrate Crystal Form 1 orally QD for 4 weeks. The 600 mg dose consisted of two 300-mg tablets (film-coated Tablet D×2). […]
LDL-C values were measured after the patient had been administered film-coated Tablet D for 2 weeks for each dosing level and on the last day of each dose. For each escalated dose, percent change from baseline in LDL-C was calculated using the baseline LDL-C value and the final LDL-C value measured for each dose. […]
This was an open-label, dose-finding, 3-period, 3-treatment study using successively escalating doses of 300 mg, 600 mg, and 900 mg gemcabene calcium salt hydrate Crystal Form 1 having PSD90 of 52 μm in patients clinically diagnosed with familial hypercholesterolemia (FH). […] Plasma from these samples were analyzed for gemcabene concentrations and the data used for PK analysis. […]

For `CC(C)(CCCCOCCCCC(C)(C)C(=O)O)C(=O)O.[Ca]` [6-(5-Carboxy-5-methyl-hexyloxy)-2,2-dimethylhexanoic acid calcium], the “LDL-C reduction compared to baseline” value is 55.2% (300 mg oral QD, 4 weeks); 49.8% (600 mg oral QD, 8 weeks); 54.5% (900 mg oral QD, 12 weeks).
